≈ marks a conversion by molar mass, not a printed value. Where two headings read alike, the source gives them in different places.

MIC data for 3 compounds are collected here from US20250152661A1, “NOVEL COMBINATION TREATMENT REGIMEN OF BACTERIAL INFECTIONS” (BONE SUPPORT AB, priority 2022, published 2025).

In experiment [1] the test system is S. aureus ATCC 25923. The experiment is described as follows: MIC values predetermined using MALDI-TOF MS system (Vitek MS). The format is cell-based, Staphylococcus aureus.
The test system of experiment [2] is S. aureus clinical strain P-3. The experiment is described as above. The format is cell-based, Staphylococcus aureus.

Usually MIC stands for the lowest concentration found to suppress growth. In the case of `CN[C@H](CC(C)C)C(=O)N[C@H]1C(=O)N[C@@H](CC(N)=O)C(=O)N[C@H]2C(=O)N[C@H]3C(=O)N[C@H](C(=O)N[C@H](C(=O)O)c4cc(O)cc(O)c4-c4cc3ccc4O)[C@H](O)c3ccc(c(Cl)c3)Oc3cc2cc(c3O[C@@H]2O[C@H](CO)[C@@H](O)[C@H](O)[C@H]2O[C@H]2C[C@](C)(N)[C@H](O)[C@H](C)O2)Oc2ccc(cc2Cl)[C@H]1O` [VAN, Vancomycin], the MIC in experiment [1] (Staphylococcus aureus, ATCC25923) was 2 µg/mL (≈ 1.38 µM); in experiment [2] (Staphylococcus aureus) it was 1 µg/mL (≈ 0.69 µM).

For the compound `CO[C@H]1/C=C/O[C@@]2(C)Oc3c(C)c(O)c4c(O)c(c(/C=N/N5CCN(C)CC5)c(O)c4c3C2=O)NC(=O)/C(C)=C\C=C\[C@H](C)[C@H](O)[C@@H](C)[C@@H](O)[C@@H](C)[C@H](OC(C)=O)[C@@H]1C` [RIF, rifampicin], the MIC in experiment [1] (Staphylococcus aureus, ATCC25923, S. aureus ATCC 25923, read-out: MIC) came out at 0.008 µg/mL (≈ 0.00972 µM); in experiment [2] (Staphylococcus aureus, S. aureus clinical strain P-3, read-out: MIC), 0.008 µg/mL (≈ 0.00972 µM).

Regarding gentamicin, the MIC came to 0.064 µg/mL in experiment [1] (S. aureus ATCC 25923) and 0.5 µg/mL in experiment [2] (S. aureus clinical strain P-3).
